Source: PMC6001238, “Iterative Chemical Engineering of Vancomycin Leads to Novel Vancomycin Analogs With a High in Vitro Therapeutic Index” (Frontiers in Microbiology, 2018)
Values after ≈ are worked out from the molar mass of the structure shown.

Assays:
E. faecalis VSE 1 = experiment: MIC, broth microdilution, vancomycin-sensitive E. faecalis (VSE 1); type: cell-based, Enterococcus faecalis; settings: for MIC: Enterococcus faecalis VSE 1 (vancomycin-sensitive), read-out: MIC; for MIC-fold improvement vs. vancomycin: VSE 1, ratio of MIC of vancomycin and MIC of analogue
In short: (§1)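 Broth microdilution per CLSI; controls = ultrapure water, non-inoculated broth. One set: + vancomycin 10 μM final alongside test analogue/control drug.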

E. faecalis VRE 6 = experiment: MIC, broth microdilution, vancomycin-resistant E. faecalis VRE 6 (VanA); type: cell-based, Enterococcus faecalis; settings: for MIC: Enterococcus faecalis VRE 6 (vancomycin-resistant), read-out: MIC; for MIC-fold improvement vs. vancomycin: VRE 6, ratio of MIC of vancomycin and MIC of analogue
In short: as §1

E. faecalis VRE 53 = experiment: MIC, broth microdilution, vancomycin-resistant E. faecalis VRE 53 (VanA); type: cell-based, Enterococcus faecalis; settings: for MIC: Enterococcus faecalis VRE 53 (vancomycin-resistant), read-out: MIC; for MIC-fold improvement vs. vancomycin: VRE 53, ratio of MIC of vancomycin and MIC of analogue
In short: as §1

E. faecalis VRE 29 = experiment: MIC, broth microdilution, vancomycin-resistant E. faecalis VRE 29 (VanA); type: cell-based, Enterococcus faecalis; settings: for MIC: Enterococcus faecalis VRE 29 (vancomycin-resistant), read-out: MIC; for MIC-fold improvement vs. vancomycin: VRE 29, ratio of MIC of vancomycin and MIC of analogue
In short: as §1

E. faecalis VRE 37 = experiment: MIC, broth microdilution, vancomycin-resistant E. faecalis VRE 37 (VanA); type: cell-based, Enterococcus faecalis; settings: for MIC: Enterococcus faecalis VRE 37 (vancomycin-resistant), read-out: MIC; for MIC-fold improvement vs. vancomycin: VRE 37, ratio of MIC of vancomycin and MIC of analogue
In short: as §1

[1] = system: Murine leukemia (L1210) cells; experiment: Cytostatic activity, L1210 cell proliferation; type: cell-based; settings: mean ± SD of three experiments; highest concentration tested 250 µM; 2 days; read-out: Toxicity (IC50) L1210
In short: (§2)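 Readout: Coulter cell number after drug exposure at 37°C. Durations differ by line (L1210 2 days; CEM 3 days; HeLa 4 days). Stock suspension 300,000–500,000 cells/mL, diluted by mixing with compound. Endpoint: IC50 vs negative control.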

[2] = system: human T-lymphocyte (CEM) cells; experiment: Cytostatic activity, CEM cell proliferation; type: cell-based; settings: mean ± SD of three experiments; highest concentration tested 250 µM; 3 days; read-out: Toxicity (IC50) CEM
In short: as §2

[3] = system: human cervix carcinoma (HeLa) cells; experiment: Cytostatic activity, HeLa cell proliferation; type: cell-based; settings: mean ± SD of three experiments; highest concentration tested 250 µM; 4 days; read-out: Toxicity (IC50) HeLa
In short: as §2

[4] = system: L1210, CEM and HeLa cell lines; experiment: Cytostatic activity, average or summary over L1210, CEM and HeLa; type: cell-based; settings: average of L1210, CEM and HeLa; read-out: Toxicity (IC50) Average
In short: as §2

[5] = system: S. aureus VSSA (ATCC 6538); experiment: MIC, broth microdilution, vancomycin-sensitive S. aureus (VSSA/MSSA, ATCC 6538); type: cell-based, Staphylococcus aureus; settings: for MIC: Staphylococcus aureus VSSA, read-out: MIC; for MIC-fold improvement vs. vancomycin: VSSA, ratio of MIC of vancomycin and MIC of analogue
In short: as §1

S. aureus VISA/HIP5827 = experiment: MIC, broth microdilution, vancomycin-intermediate S. aureus VISA HIP5827; type: cell-based, Staphylococcus aureus; settings: for MIC: Staphylococcus aureus VISA/HIP5827, read-out: MIC; for MIC-fold improvement vs. vancomycin: VISA/HIP5827, ratio of MIC of vancomycin and MIC of analogue
In short: as §1

S. aureus VRSA = experiment: MIC, broth microdilution, vancomycin-resistant S. aureus (VRSA); type: cell-based, Staphylococcus aureus; settings: for MIC: Staphylococcus aureus VRSA, read-out: MIC; for MIC-fold improvement vs. vancomycin: VRSA, ratio of MIC of vancomycin and MIC of analogue
In short: as §1

MRSA KS2 = experiment: MIC, broth microdilution, MRSA KS2; type: cell-based, Staphylococcus aureus; settings: for MIC-fold improvement vs. vancomycin: MRSA KS2, ratio of MIC of vancomycin and MIC of analogue; for MIC: Staphylococcus aureus MRSA KS2, read-out: MIC
In short: as §1

MRSA KS6 = experiment: MIC, broth microdilution, MRSA KS6; type: cell-based, Staphylococcus aureus; settings: for MIC-fold improvement vs. vancomycin: MRSA KS6, ratio of MIC of vancomycin and MIC of analogue; for MIC: Staphylococcus aureus MRSA KS6, read-out: MIC
In short: as §1

MRSA KS89 = experiment: MIC, broth microdilution, MRSA KS89; type: cell-based, Staphylococcus aureus; settings: for MIC-fold improvement vs. vancomycin: MRSA KS8, ratio of MIC of vancomycin and MIC of analogue; for MIC: Staphylococcus aureus MRSA KS8, read-out: MIC
In short: as §1

MRSA KS1 = experiment: MIC, broth microdilution, MRSA KS1; type: cell-based, Staphylococcus aureus; settings: for MIC-fold improvement vs. vancomycin: MRSA KS1, ratio of MIC of vancomycin and MIC of analogue; for MIC: Staphylococcus aureus MRSA KS1, read-out: MIC
In short: as §1

SMILES	MIC (E. faecalis VSE 1)	MIC-fold improvement vs. vancomycin (E. faecalis VSE 1)	MIC (E. faecalis VRE 6)	MIC-fold improvement vs. vancomycin (E. faecalis VRE 6)	MIC (E. faecalis VRE 53)	MIC-fold improvement vs. vancomycin (E. faecalis VRE 53)	MIC (E. faecalis VRE 29)	MIC (E. faecalis VRE 37)	MIC [5]	MIC-fold improvement vs. vancomycin [5]	MIC (S. aureus VISA/HIP5827)	MIC-fold improvement vs. vancomycin (S. aureus VISA/HIP5827)	MIC (S. aureus VRSA)	MIC-fold improvement vs. vancomycin (S. aureus VRSA)	MIC-fold improvement vs. vancomycin (MRSA KS2)	MIC (MRSA KS2)	IC50 [1]	IC50 [2]	IC50 [3]	IC50 [4]	other results
CN[C@H](CC(C)C)C(=O)N[C@H]1C(=O)N[C@@H](CC(N)=O)C(=O)N[C@H]2C(=O)N[C@H]3C(=O)N[C@H](C(=O)N[C@H](C(=O)NCC(=O)Nc4cccc(F)c4)c4cc(O)cc(O)c4-c4cc3ccc4O)[C@H](O)c3ccc(c(Cl)c3)Oc3cc2cc(c3O[C@@H]2O[C@H](CO)[C@@H](O)[C@H](O)[C@H]2O[C@H]2C[C@](C)(N)[C@H](O)[C@H](C)O2)Oc2ccc(cc2Cl)[C@H]1O [Vanc-10]	0.78 µM (≈ 1.25 µg/mL)	2	6.25 µM (≈ 10 µg/mL)	32	12.5 µM (≈ 20 µg/mL)	32	12.5 µM (≈ 20 µg/mL)	12.5 µM (≈ 20 µg/mL)	0.78 µM (≈ 1.25 µg/mL)	1	0.78 µM (≈ 1.25 µg/mL)	8	12.5 µM (≈ 20 µg/mL)	8	2	0.39 µM (≈ 0.624 µg/mL)	> 250 µM	> 250 µM	214 ± 51 µM	238 µM	MIC-fold improvement vs. vancomycin (E. faecalis VRE 29): 32; MIC-fold improvement vs. vancomycin (E. faecalis VRE 37): 64; MIC-fold improvement vs. vancomycin (MRSA KS6): 1; MIC (MRSA KS6): 0.78 µM (≈ 1.25 µg/mL); MIC-fold improvement vs. vancomycin (MRSA KS89): 2; MIC (MRSA KS89): 0.39 µM (≈ 0.624 µg/mL); MIC-fold improvement vs. vancomycin (MRSA KS1): 2; MIC (MRSA KS1): 0.39 µM (≈ 0.624 µg/mL)
CNC(CC(C)C)C(=O)NC1C(=O)NC(CC(N)=O)C(=O)NC2C(=O)NC3C(=O)NC(C(=O)NC(C(=O)NCCNC(=O)C4c5ccccc5-c5ccccc54)c4cc(O)cc(O)c4-c4cc3ccc4O)C(O)c3ccc(c(Cl)c3)Oc3cc2cc(c3OC2OC(CO)C(O)C(O)C2OC2CC(C)(N)C(O)C(C)O2)Oc2ccc(cc2Cl)C1O (stereo not shown) [Vanc-46]	0.78 µM (≈ 1.31 µg/mL)	2	6.25 µM (≈ 10.5 µg/mL)	32	25 µM (≈ 42.1 µg/mL)	16	25 µM (≈ 42.1 µg/mL)	25 µM (≈ 42.1 µg/mL)	0.78 µM (≈ 1.31 µg/mL)	1	1.56 µM (≈ 2.63 µg/mL)	4	6.25 µM (≈ 10.5 µg/mL)	16	2	0.39 µM (≈ 0.657 µg/mL)	197 ± 18 µM	235 ± 21 µM	108 ± 9 µM	180 µM	MIC-fold improvement vs. vancomycin (E. faecalis VRE 29): 16; MIC-fold improvement vs. vancomycin (E. faecalis VRE 37): 16; MIC-fold improvement vs. vancomycin (MRSA KS6): 0.25; MIC (MRSA KS6): 3.13 µM (≈ 5.27 µg/mL); MIC-fold improvement vs. vancomycin (MRSA KS89): 2; MIC (MRSA KS89): 0.39 µM (≈ 0.657 µg/mL); MIC-fold improvement vs. vancomycin (MRSA KS1): 1; MIC (MRSA KS1): 0.78 µM (≈ 1.31 µg/mL)
CNC(CC(C)C)C(=O)NC1C(=O)NC(CC(N)=O)C(=O)NC2C(=O)NC3C(=O)NC(C(=O)NC(C(=O)NCC(=O)Nc4cccc(OC)c4)c4cc(O)cc(O)c4-c4cc3ccc4O)C(O)c3ccc(c(Cl)c3)Oc3cc2cc(c3OC2OC(CO)C(O)C(O)C2OC2CC(C)(N)C(O)C(C)O2)Oc2ccc(cc2Cl)C1O (stereo not shown) [Vanc-12]	0.78 µM (≈ 1.26 µg/mL)	2	6.25 µM (≈ 10.1 µg/mL)	32	12.5 µM (≈ 20.1 µg/mL)	32	12.5 µM (≈ 20.1 µg/mL)	25 µM (≈ 40.3 µg/mL)	0.39 µM (≈ 0.628 µg/mL)	2	0.39 µM (≈ 0.628 µg/mL)	16	12.5 µM (≈ 20.1 µg/mL)	8	2	0.39 µM (≈ 0.628 µg/mL)	> 250 µM	> 250 µM	194 ± 78 µM	231 µM	MIC-fold improvement vs. vancomycin (MRSA KS6): 1; MIC (MRSA KS6): 0.78 µM (≈ 1.26 µg/mL); MIC-fold improvement vs. vancomycin (MRSA KS89): 2; MIC (MRSA KS89): 0.39 µM (≈ 0.628 µg/mL); MIC-fold improvement vs. vancomycin (MRSA KS1): 2; MIC (MRSA KS1): 0.39 µM (≈ 0.628 µg/mL)

Continued, in another order:

MIC (E. faecalis VSE 1)	MIC-fold improvement vs. vancomycin (E. faecalis VSE 1)	MIC (E. faecalis VRE 6)	MIC-fold improvement vs. vancomycin (E. faecalis VRE 6)	MIC (E. faecalis VRE 53)	MIC-fold improvement vs. vancomycin (E. faecalis VRE 53)	MIC (E. faecalis VRE 29)	MIC (E. faecalis VRE 37)	MIC [5]	MIC-fold improvement vs. vancomycin [5]	MIC (S. aureus VISA/HIP5827)	MIC-fold improvement vs. vancomycin (S. aureus VISA/HIP5827)	MIC (S. aureus VRSA)	MIC-fold improvement vs. vancomycin (S. aureus VRSA)	MIC-fold improvement vs. vancomycin (MRSA KS2)	MIC (MRSA KS2)	SMILES	IC50 [1]	IC50 [2]	IC50 [3]	IC50 [4]	other results
0.39 µM (≈ 0.708 µg/mL)	4	3.13 µM (≈ 5.68 µg/mL)	64	25 µM (≈ 45.4 µg/mL)	16	6.25 µM (≈ 11.3 µg/mL)	12.5 µM (≈ 22.7 µg/mL)	0.39 µM (≈ 0.708 µg/mL)	2	0.78 µM (≈ 1.42 µg/mL)	8	0.78 µM (≈ 1.42 µg/mL)	128	2	0.39 µM (≈ 0.708 µg/mL)	CNC(CC(C)C)C(=O)NC1C(=O)NC(CC(N)=O)C(=O)NC2C(=O)NC3C(=O)NC(C(=O)NC(C(=O)NCCCNC(=O)c4ccc5cc(NS(=O)(=O)c6ccccc6)ccc5c4)c4cc(O)cc(O)c4-c4cc3ccc4O)C(O)c3ccc(c(Cl)c3)Oc3cc2cc(c3OC2OC(CO)C(O)C(O)C2OC2CC(C)(N)C(O)C(C)O2)Oc2ccc(cc2Cl)C1O (stereo not shown) [Vanc-63]	> 250 µM	≥ 250 µM	69 ± 74 µM	190 µM	MIC-fold improvement vs. vancomycin (E. faecalis VRE 29): 64; MIC-fold improvement vs. vancomycin (MRSA KS6): 2; MIC (MRSA KS6): 0.39 µM (≈ 0.708 µg/mL); MIC-fold improvement vs. vancomycin (MRSA KS89): 2; MIC (MRSA KS89): 0.39 µM (≈ 0.708 µg/mL); MIC-fold improvement vs. vancomycin (MRSA KS1): 2; MIC (MRSA KS1): 0.39 µM (≈ 0.708 µg/mL)
0.39 µM (≈ 0.656 µg/mL)	4	6.25 µM (≈ 10.5 µg/mL)	32	12.5 µM (≈ 21 µg/mL)	32	12.5 µM (≈ 21 µg/mL)	12.5 µM (≈ 21 µg/mL)	0.39 µM (≈ 0.656 µg/mL)	2	0.78 µM (≈ 1.31 µg/mL)	8	0.78 µM (≈ 1.31 µg/mL)	128	4	0.20 µM (≈ 0.336 µg/mL)	CCCCOc1ccc(C(=O)NCCCNC(=O)C2NC(=O)C3NC(=O)C(NC(=O)C4NC(=O)C(CC(N)=O)NC(=O)C(NC(=O)C(CC(C)C)NC)C(O)c5ccc(c(Cl)c5)Oc5cc4cc(c5OC4OC(CO)C(O)C(O)C4OC4CC(C)(N)C(O)C(C)O4)Oc4ccc(cc4Cl)C3O)c3ccc(O)c(c3)-c3c(O)cc(O)cc32)cc1 (stereo not shown) [Vanc-50]	> 250 µM	86 ± 2 µM	96 ± 4 µM	144 µM	MIC-fold improvement vs. vancomycin (E. faecalis VRE 29): 32; MIC-fold improvement vs. vancomycin (MRSA KS6): 2; MIC (MRSA KS6): 0.39 µM (≈ 0.656 µg/mL); MIC-fold improvement vs. vancomycin (MRSA KS89): 2; MIC (MRSA KS89): 0.39 µM (≈ 0.656 µg/mL); MIC-fold improvement vs. vancomycin (MRSA KS1): 4; MIC (MRSA KS1): 0.20 µM (≈ 0.336 µg/mL)
